In US11083725B2 (priority 2014, dated 2021):

System: NHBE cells
Test: Biolog metabolic array: substrate use by NHBE cells with or without CA09 infection
Type: cell-based, human
Conditions: for Substrate use, 590 nm absorbance normalized to zero hour, 1 hr: Biolog PMM2, 1 hr; for Substrate use, 590 nm absorbance normalized to zero hour, 5 hr: Biolog PMM2, 5 hr; for Substrate use, 590 nm absorbance normalized to zero hour, 7 hr: Biolog PMM2, 7 hr
[1] = Control (uninfected) NHBE cells
[2] = Virus (CA09-infected NHBE cells, MOI 1)
[3] = Virus: CA09-infected NHBE cells, MOI 1, Biolog PMM2
[4] = Virus (CA09-infected, MOI 1) NHBE cells

| SMILES | 590 nm absorbance normalized to zero hour (substrate use), 1 hr [1] | 590 nm absorbance normalized to zero hour (substrate use), 2 hr [1] | 590 nm absorbance normalized to zero hour (substrate use), 3 hr [1] | 590 nm absorbance normalized to zero hour (substrate use), 4 hr [1] | 590 nm absorbance normalized to zero hour (substrate use), 6 hr [1] | 590 nm absorbance normalized to zero hour (substrate use), 8 hr [1] | 590 nm absorbance normalized to zero hour (substrate use), 9 hr [1] | 590 nm absorbance normalized to zero hour (substrate use), 10 hr [1] | 590 nm absorbance normalized to zero hour (substrate use), 11 hr [1] | Substrate use, 590 nm absorbance normalized to zero hour, 1 hr [1] | Substrate use, 590 nm absorbance normalized to zero hour, 5 hr [1] | Substrate use, 590 nm absorbance normalized to zero hour, 7 hr [1] | 590 nm absorbance normalized to zero hour (substrate use), 1 hr [3] | 590 nm absorbance normalized to zero hour (substrate use), 2 hr [3] | 590 nm absorbance normalized to zero hour (substrate use), 3 hr [3] | 590 nm absorbance normalized to zero hour (substrate use), 4 hr [3] | 590 nm absorbance normalized to zero hour (substrate use), 5 hr [3] | 590 nm absorbance normalized to zero hour (substrate use), 6 hr [3] | 590 nm absorbance normalized to zero hour (substrate use), 7 hr [3] | 590 nm absorbance normalized to zero hour (substrate use), 8 hr [3] | also measured |
| --- | --- | --- | --- | --- | --- | --- | --- | --- | --- | --- | --- | --- | --- | --- | --- | --- | --- | --- | --- | --- | --- |
| CC(=O)C(C)O (stereo not shown) [3-Hydroxy 2-Butanone] | 1.49 | 1.75 | 1.64 | 1.71 | 0.48 | 1.86 | 7.44 | 7.39 | 2.14 | 1.49 | 2.01 | 1.80 | 1.24 | 1.65 | 2.42 | 2.37 | 2.39 | 2.28 | 2.37 | 2.01 | 590 nm absorbance normalized to zero hour (substrate use), 1 hr [2]: 1.24; 590 nm absorbance normalized to zero hour (substrate use), 2 hr [2]: 1.65; 590 nm absorbance normalized to zero hour (substrate use), 3 hr [2]: 2.42; 590 nm absorbance normalized to zero hour (substrate use), 4 hr [2]: 2.37; 590 nm absorbance normalized to zero hour (substrate use), 5 hr [2]: 2.39; 590 nm absorbance normalized to zero hour (substrate use), 6 hr [2]: 2.28; 590 nm absorbance normalized to zero hour (substrate use), 7 hr [2]: 2.37; 590 nm absorbance normalized to zero hour (substrate use), 8 hr [2]: 2.01; 590 nm absorbance normalized to zero hour (substrate use), 9 hr [2]: 2.18; 590 nm absorbance normalized to zero hour (substrate use), 10 hr [2]: 2.16; 590 nm absorbance normalized to zero hour (substrate use), 11 hr [2]: 2.35; 590 nm absorbance normalized to zero hour (substrate use), 9 hr [3]: 2.18; 590 nm absorbance normalized to zero hour (substrate use), 10 hr [3]: 2.16; 590 nm absorbance normalized to zero hour (substrate use), 11 hr [3]: 2.35 |
| O=C(O)CCC(=O)O [Succinic Acid] | 1.02 | 1.06 | 1.08 | 1.06 | 0.39 | 0.96 | 0.94 | 0.87 | 0.81 | 1.02 | 1.04 | 1.00 | 1.69 | 2.01 | 2.37 | 2.37 | 2.54 | 2.73 | 2.78 | 2.85 | 590 nm absorbance normalized to zero hour (substrate use), 1 hr [4]: 1.69; 590 nm absorbance normalized to zero hour (substrate use), 2 hr [4]: 2.01; 590 nm absorbance normalized to zero hour (substrate use), 3 hr [4]: 2.37; 590 nm absorbance normalized to zero hour (substrate use), 4 hr [4]: 2.37; 590 nm absorbance normalized to zero hour (substrate use), 5 hr [4]: 2.54; 590 nm absorbance normalized to zero hour (substrate use), 6 hr [4]: 2.73; 590 nm absorbance normalized to zero hour (substrate use), 7 hr [4]: 2.78; 590 nm absorbance normalized to zero hour (substrate use), 8 hr [4]: 2.85; 590 nm absorbance normalized to zero hour (substrate use), 9 hr [4]: 3.06; 590 nm absorbance normalized to zero hour (substrate use), 10 hr [4]: 2.98; 590 nm absorbance normalized to zero hour (substrate use), 11 hr [4]: 3.12; 590 nm absorbance normalized to zero hour (substrate use), 9 hr [3]: 3.06; 590 nm absorbance normalized to zero hour (substrate use), 10 hr [3]: 2.98; 590 nm absorbance normalized to zero hour (substrate use), 11 hr [3]: 3.12 |
| OC[C@H]1OC(O)[C@@H](O)[C@@H](O)[C@@H]1O (stereo partly drawn) [D-Mannose] | 2.20 | 3.33 | 4.33 | 4.90 | 6.50 | 8.13 | 9.60 | 10.60 | 12.47 | 2.20 | 6.64 | 8.62 | 1.49 | 2.09 | 2.68 | 3.06 | 4.10 | 4.57 | 4.94 | 5.47 | 590 nm absorbance normalized to zero hour (substrate use), 0 hr [1]: 1.00; Substrate use, 590 nm absorbance normalized to zero hour, 0 hr (Control (uninfected) NHBE cells, Biolog PMM2, 0 hr): 1.00; 590 nm absorbance normalized to zero hour (substrate use), 0 hr [4]: 1.00; 590 nm absorbance normalized to zero hour (substrate use), 1 hr [4]: 1.49; 590 nm absorbance normalized to zero hour (substrate use), 2 hr [4]: 2.09; 590 nm absorbance normalized to zero hour (substrate use), 3 hr [4]: 2.68; 590 nm absorbance normalized to zero hour (substrate use), 4 hr [4]: 3.06; 590 nm absorbance normalized to zero hour (substrate use), 5 hr [4]: 4.10; 590 nm absorbance normalized to zero hour (substrate use), 6 hr [4]: 4.57; 590 nm absorbance normalized to zero hour (substrate use), 7 hr [4]: 4.94; 590 nm absorbance normalized to zero hour (substrate use), 8 hr [4]: 5.47; 590 nm absorbance normalized to zero hour (substrate use), 9 hr [4]: 6.51; 590 nm absorbance normalized to zero hour (substrate use), 10 hr [4]: 6.80; 590 nm absorbance normalized to zero hour (substrate use), 11 hr [4]: 7.75; 590 nm absorbance normalized to zero hour (substrate use), 0 hr [3]: 1.00; 590 nm absorbance normalized to zero hour (substrate use), 9 hr [3]: 6.51; 590 nm absorbance normalized to zero hour (substrate use), 10 hr [3]: 6.80; 590 nm absorbance normalized to zero hour (substrate use), 11 hr [3]: 7.75 |
